Values quoted from earlier work, collected in patent US12508224B2, “Treating microvascular dysfunction” (EndoProtech, Inc., priority 2018, dated 2025).

System: glycocalyx

## CCCCCCCCCCCCC/C=C/[C@@H](O)[C@@H](N)COP(=O)(O)O [SP, sphingosine-1-phosphate]
  levels needed in plasma to protect the stability of the glycocalyx: 100 to 300 nM
